For test [1], the system named is symmetric di-methyl arginine in Z-138 cells. Description: Z-138 Methylation Assay (In Cell Western for symmetric di-methyl arginine and DNA content). The class given is cell-based. The note with it: Homo sapiens, read-out: ICW EC50. Summed up:
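In-cell western: symmetric di-methyl arginine signal ratioed to DRAQ5 DNA content after 96 h compound exposure of Z-138 cells seeded at 50,000 cells/mL.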

In the next test the target is PRMT5/MEP50 (Homo sapiens (Human), UniProt O14744). Description: PRMT5 Biochemical Assay (PRMT5/MEP50 enzyme assay on peptide substrate, 3H-SAM Flashplate). The gist of the method:
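Radiometric methylation of a biotin-tagged H4(1-15) peptide by human PRMT5/MEP50 from baculovirus/Sf9, with ³H-SAM incorporation read on streptavidin Flashplates. Buffer: Bicine pH 7.6, TCEP, BSG, Tween20; compound preincubated 30 min at 25 °C; stopped with 600 µM final unlabeled SAM. DMSO and SAH controls; IC50 from fitted % inhibition.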

The test system of a further test is Z-138 cell line. Kind of test: Z-138 Proliferation Assay (Cell Titer Glo, 5 days). The settings on record: Homo sapiens, 120 h, Z-138 cells, 5 days, read-out: Proliferation EC50. In kind it is cell-based. Summed up: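 Viability via CellTiter-Glo luminescence (ATP) after 5-day incubation at 37 °C, 5% CO2. Compounds tested in triplicate, nine 3-fold steps, highest final concentration 20 μM in 0.2% DMSO; 50% inhibitory concentration by 4-parameter fit of normalized curves.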
On the technique in general: In ATP-based viability assays light output follows the ATP content of the culture.

Like-named read-outs stand apart in the source and are kept apart here.

Chain of PRMT5/MEP50 (O14744 other isoform, or with tags, fused parts or gaps): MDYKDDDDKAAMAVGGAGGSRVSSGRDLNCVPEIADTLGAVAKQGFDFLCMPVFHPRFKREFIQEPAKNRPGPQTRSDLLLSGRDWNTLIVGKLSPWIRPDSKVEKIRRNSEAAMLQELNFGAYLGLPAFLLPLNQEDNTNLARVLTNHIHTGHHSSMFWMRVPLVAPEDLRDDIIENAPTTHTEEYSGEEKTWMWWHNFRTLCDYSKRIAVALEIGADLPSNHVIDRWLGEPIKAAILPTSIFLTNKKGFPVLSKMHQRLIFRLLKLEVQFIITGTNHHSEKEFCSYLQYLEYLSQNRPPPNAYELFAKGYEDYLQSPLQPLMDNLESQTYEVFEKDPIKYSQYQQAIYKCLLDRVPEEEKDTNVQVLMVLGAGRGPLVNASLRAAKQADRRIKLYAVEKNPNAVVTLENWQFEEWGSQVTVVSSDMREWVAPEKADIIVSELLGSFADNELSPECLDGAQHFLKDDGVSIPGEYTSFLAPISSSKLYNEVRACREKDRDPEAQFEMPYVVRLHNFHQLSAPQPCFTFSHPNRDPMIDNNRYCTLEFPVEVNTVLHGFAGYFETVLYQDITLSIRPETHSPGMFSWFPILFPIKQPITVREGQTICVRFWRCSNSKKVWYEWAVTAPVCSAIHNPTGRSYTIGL
Chain of PRMT5/MEP50 (Q9BQA1 other isoform, or with tags, fused parts or gaps partner): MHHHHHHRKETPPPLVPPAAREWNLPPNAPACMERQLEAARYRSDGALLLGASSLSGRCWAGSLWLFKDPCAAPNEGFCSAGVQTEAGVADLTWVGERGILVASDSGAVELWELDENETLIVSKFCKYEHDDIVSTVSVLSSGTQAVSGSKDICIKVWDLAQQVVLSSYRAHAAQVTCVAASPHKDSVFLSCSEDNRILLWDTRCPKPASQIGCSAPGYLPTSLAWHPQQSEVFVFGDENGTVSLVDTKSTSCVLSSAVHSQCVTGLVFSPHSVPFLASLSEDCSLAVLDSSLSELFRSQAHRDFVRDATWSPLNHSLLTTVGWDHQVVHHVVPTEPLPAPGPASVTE

A word on the IC50: it is the concentration that inhibits the measured activity by half. In the case of `CNCCOc1ccc(C(=O)NC[C@H](O)CN2CCc3ccccc3C2)cc1` [Compound 386], the EC50 in test [1] was less than 100 nM; in the test with Z-138 cell line it was 1000 to 10000 nM. The IC50 at PRMT5/MEP50 was less than 100 nM.
As for `O=C(NC[C@H](O)CN1CCc2ccccc2C1)c1ccc(OCCN2CCOCC2)cc1` [Compound 387], the EC50 in test [1] was less than 100 nM; in the test on Z-138 cell line, 101 to 1000 nM. Further, the IC50 at PRMT5/MEP50 was less than 100 nM.
In the case of `O=C(NC[C@H](O)CN1CCc2ccccc2C1)c1ccc(OCCN2CCC2)cc1` [Compound 388], the EC50 in test [1] is less than 100 nM; with Z-138 cell line, 1000 to 10000 nM. In addition, the 50% inhibitory concentration (IC50) on PRMT5/MEP50 was less than 100 nM.
On to `CC(C)N(C)CCOc1ccc(C(=O)NC[C@H](O)CN2CCc3ccccc3C2)cc1` [Compound 389], for which the values for the EC50 (in test [1]; in the test on Z-138 cell line) were less than 100 nM and 1000 to 10000 nM, respectively. In addition, at PRMT5/MEP50, the IC50 is less than 100 nM.
Regarding `CC(C)NCCOc1ccc(C(=O)NC[C@H](O)CN2CCc3ccccc3C2)cc1` [Compound 390], the figures for the EC50 (in test [1]; with Z-138 cell line) were less than 100 nM and 1000 to 10000 nM, respectively. The IC50 on PRMT5/MEP50 is less than 100 nM.
For `CCNCCOc1ccc(C(=O)NC[C@H](O)CN2CCc3ccccc3C2)cc1` [Compound 391], the figures for the EC50 (in test [1]; in the test on Z-138 cell line) were less than 100 nM and 1000 to 10000 nM, respectively. Further, the IC50 at PRMT5/MEP50 is less than 100 nM.
Take `CNCCCOc1ccc(C(=O)NC[C@H](O)CN2CCc3ccccc3C2)cc1` [Compound 392]: the EC50 in test [1] was less than 100 nM; in the test on Z-138 cell line, 1000 to 10000 nM. Also, at PRMT5/MEP50, the half-maximal inhibitory concentration (IC50) was less than 100 nM.
For `O=C(NC[C@H](O)CN1CCc2ccccc2C1)c1cc(NC2CCC2)nc(N2CCNCC2)c1` [Compound 393], the EC50 (in test [1]; in the test on Z-138 cell line) was less than 100 nM each time. In addition, the IC50 at PRMT5/MEP50 was less than 100 nM.
With `CN1CCN(c2nc(NC3COC3)cc(C(=O)NC[C@H](O)CN3CCc4ccccc4C3)n2)CC1` [Compound 394], the EC50 (in test [1]; in the test on Z-138 cell line) was less than 100 nM throughout. Also, the IC50 on PRMT5/MEP50 is less than 100 nM.
As to `O=C(NC[C@H](O)CN1CCc2ccccc2C1)c1cc(NC2COC2)nc(N2CCOCC2)n1` [Compound 395], the EC50 (in test [1]; with Z-138 cell line) was less than 100 nM each time. For the same compound, the IC50 at PRMT5/MEP50 is less than 100 nM.
Turning to `CCNCCCOc1ccc(C(=O)NC[C@H](O)CN2CCc3ccccc3C2)cc1` [Compound 396], the EC50 in test [1] was less than 100 nM; in the test with Z-138 cell line, 1000 to 10000 nM. The concentration for half-maximal inhibition (IC50) on PRMT5/MEP50 is less than 100 nM.
Turning to `CC(C)N1CCN(c2cc(C(=O)NC[C@H](O)CN3CCc4ccccc4C3)cc(NC3CCC3)n2)CC1` [Compound 397], the EC50 (in test [1]; with Z-138 cell line) was less than 100 nM in each case. Also, the IC50 at PRMT5/MEP50 was less than 100 nM.
Consider `CC(=O)N1CCN(c2cc(C(=O)NC[C@H](O)CN3CCc4ccccc4C3)cc(NC3CCC3)n2)CC1` [Compound 398], for which the EC50 (in test [1] (In Cell Western methylation); in the test with Z-138 cell line (Cell Titer Glo)) was less than 100 nM throughout. For the same compound, the IC50 at PRMT5/MEP50 (PRMT5 biochemical assay) was less than 100 nM.
Take `Cc1nc(NC2COC2)cc(C(=O)NC[C@H](O)CN2CCc3ccccc3C2)n1` [Compound 399]: the values for the EC50 (in test [1] (In Cell Western methylation); in the test with Z-138 cell line (Cell Titer Glo)) were less than 100 nM and 1000 to 10000 nM, respectively. Besides, on PRMT5/MEP50 (PRMT5 biochemical assay), the IC50 was less than 100 nM.
For the compound `Cc1cnc(NC2CCNC2)cc1C(=O)NC[C@H](O)CN1CCc2ccccc2C1` (stereo partly drawn) [Compound 400], the EC50 in test [1] (In Cell Western methylation) was greater than 1000 nM; with Z-138 cell line (Cell Titer Glo) it was greater than 20000 nM. Besides, the 50% inhibitory concentration (IC50) on PRMT5/MEP50 (PRMT5 biochemical assay) is less than 100 nM.
For `Cc1cnc(NC2CCN(C)C2)cc1C(=O)NC[C@H](O)CN1CCc2ccccc2C1` (stereo partly drawn) [Compound 401], the EC50 in test [1] (In Cell Western methylation) lay within 101 to 1000 nM; in the test with Z-138 cell line (Cell Titer Glo), 1000 to 10000 nM. Further, at PRMT5/MEP50 (PRMT5 biochemical assay), the IC50 is less than 100 nM.
Consider `Cc1cnc(NC2CCN(CC(F)(F)F)C2)cc1C(=O)NC[C@H](O)CN1CCc2ccccc2C1` (stereo partly drawn) [Compound 402], for which the EC50 in test [1] (In Cell Western methylation) was less than 100 nM; in the test with Z-138 cell line (Cell Titer Glo) it was 1000 to 10000 nM. In addition, the IC50 at PRMT5/MEP50 (PRMT5 biochemical assay) is less than 100 nM.
Turning to `Cc1cnc(NC2CN(C)C2)cc1C(=O)NC[C@H](O)CN1CCc2ccccc2C1` [Compound 403], the EC50 in test [1] (In Cell Western methylation) was greater than 1000 nM; with Z-138 cell line (Cell Titer Glo), greater than 20000 nM. On PRMT5/MEP50 (PRMT5 biochemical assay), the IC50 is less than 100 nM.
For `O=C(NC[C@H](O)CN1CCc2ccccc2C1)c1cn2nc(Cl)ccc2n1` [Compound 404] the same measures were 101 to 1000 nM, 10000 to 50000 nM and less than 100 nM.

Source of the values: patent US10307413B2, “Tetrahydro- and dihydro-isoquinoline PRMT5 inhibitors and uses thereof” (Epizyme, Inc., priority 2013, dated 2019).
